# Measurements published in article PMC11462627, “SAL0114: a novel deuterated dextromethorphan-bupropion combination with improved antidepressant efficacy and safety profile” (Frontiers in Pharmacology, 2024).
# Where two headings read alike, the source gives them in different places.
# Experiments:
# ICR mice [1] = test: Tail suspension test; format: in vivo; settings: TST, oral, 1 h after administration, deDM 10 and 18 mg/kg, BUP 50 mg/kg, deDM + BUP 10 + 50 and 18 + 50 mg/kg
# Protocol: The TST was adapted from the behavioral despair test described by Nguyen et al. ([Nguyen et al., 2017]), with some modifications. […] All compounds were administered orally via gavage at a volume of 10 mL/kg body weight, with the vehicle group receiving an equivalent volume of saline. One hour after administration, mice underwent a tail suspension test (TST). For the TST, each mouse was suspended by its tail, with adhesive tape attached 2 cm from the tail tip and secured to a metal rod. Care was taken to ensure a minimum distance of 15 cm between the suspended animal and the surrounding objects. The test was performed using the ANY-maze version 4.63 video tracking program (Stoelting Co., Wood Dale, IL, United States) for a total duration of 6 min. The initial 2 min served as an acclimatization period and were not scored. The immobility time during the subsequent 4 min was measured using the same software. Immobility was defined as mouse hanging passively and motionless. The ANY-Maze software parameters were set as follows: acclimatization period = 120 s, test duration = 240 s, minimum immobility time = 2 s, and immobility sensitivity = 75%. […]
# Sprague-Dawley rats = test: Reserpine-induced hypothermia in rats; format: in vivo; settings: reserpine 4 mg/kg i.p. rats, oral, 30 min after treatment; BUP 40 mg/kg, deDM 5 and 10 mg/kg, deDM + BUP 5 + 40 and 10 + 40 mg/kg
# Protocol: A reserpine-induced hypothermia test was performed according to the method described by Rojas-Corrales et al. ([Rojas-Corrales et al., 2004]; [Dhamija et al., 2017]), with some modifications. 80 male Sprague-Dawley rats were administered an intraperitoneal injection of reserpine (4 mg/kg). 18 h after the injection, rectal temperatures were measured using a rectal probe connected to a thermometer (MC-347, Omron Healthcare, Dalian, China). Rats with body temperatures not exceeding 34.5°C were considered successfully modeled. […] An additional group of ten rats not treated with reserpine served as the normal control. After the group assignment, the second phase of compound administration was initiated. The normal and model control groups received oral saline (10 mL/kg), whereas the other groups received their respective compounds orally at the specified doses, all in an equivalent volume (10 mL/kg). Rectal temperatures were measured 30 min after treatment to assess the effect of compounds in each group on the reserpine-induced hypothermia model. All experimental procedures were conducted in strict accordance with guidelines approved by the Institutional Animal Care and Use Committee of Shenzhen Salubris Pharmaceuticals Co., Ltd. A P value of less than 0.05 was considered statistically significant for comparisons between groups.
# ICR mice [2] = test: Forced swim test; format: in vivo; settings: FST, oral, 1 h after administration, deDM 10 and 18 mg/kg, BUP 50 mg/kg, deDM + BUP 10 + 50 and 18 + 50 mg/kg
# Protocol: The mouse forced swim test was performed in a way similar to that published previously by Nguyen et al. ([Nguyen et al., 2017]) with some modifications. […] All compounds were administered orally via gavage at a volume of 10 mL/kg body weight, with the vehicle group receiving an equivalent volume of saline. 1 h after administration, mice underwent the forced swim test (FST), a widely used behavioral assay for evaluating antidepressant-like effects. Each mouse was individually placed in a transparent cylindrical tank filled with water (depth: 18 cm, temperature: 25°C ± 1°C) for a 6-min test session. The initial 2 min served as the acclimatization period and was not scored. Floating time during the subsequent 4 min was measured using ANY-Maze Version 4.63 video tracking software (Stoelting Co., Illinois, United States). Floating was defined as the minimum movement required to keep the animal’s head above water. Floating time (%) = floatting time(s)/240 s. The ANY-Maze software parameters were set as follows: acclimatization period = 120 s, test duration = 240 s, minimum immobility time = 2 s, and immobility sensitivity = 75%. To maintain consistent conditions, water was changed between the animals. […]
# C57BL/6J mice = test: Ammonia-induced cough mouse model; format: in vivo; settings: oral
# Protocol: Antitussive effects were investigated using a classical mouse cough model induced by ammonia liquor, with some modifications ([Jiang et al., 2014]; [Adejayan et al., 2019]). An ammonia-induced cough model in male C57BL/6J mice was used to evaluate the antitussive effects using a two-step approach. The initial screening phase aimed to identify the mice with consistent and pronounced cough responses. Individual mice were exposed to 0.2 mL of 13% ammonium hydroxide solution in 500 mL glass vials. A trained observer measured the latency period and recorded the number of coughs over a 3-min period post-exposure. […] Following a 24-h recovery period, 70 eligible mice were randomly allocated to seven treatment groups (n = 10 per group) for the compound evaluation phase. […] All compounds were administered orally at a volume of 10 mL/kg. At 0.5 h post-administration, each mouse was re-exposed to 0.2 mL of 13% ammonia in a 500 mL glass jar for 1 min. Subsequently, the trained observer recorded the number of coughs over a 3-min period following removal from the jar. […] All experimental procedures were conducted in strict compliance with guidelines approved by the Institutional Animal Care and Use Committee of Shenzhen Salubris Pharmaceuticals Co., Ltd., ensuring adherence to ethical standards in animal research. A P value of less than 0.05 was considered statistically significant for comparisons between groups.
# nAchR α3β4 = target: T1, nAchR α3β4 (Homo sapiens, UniProt P30926+P32297); test: nAchR α3β4 radioligand binding (125I-epibatidine, recombinant CHO-K1 cells)
# T1 construct: host or cells: CHO-K1
# T1 sequence (P32297 32-505): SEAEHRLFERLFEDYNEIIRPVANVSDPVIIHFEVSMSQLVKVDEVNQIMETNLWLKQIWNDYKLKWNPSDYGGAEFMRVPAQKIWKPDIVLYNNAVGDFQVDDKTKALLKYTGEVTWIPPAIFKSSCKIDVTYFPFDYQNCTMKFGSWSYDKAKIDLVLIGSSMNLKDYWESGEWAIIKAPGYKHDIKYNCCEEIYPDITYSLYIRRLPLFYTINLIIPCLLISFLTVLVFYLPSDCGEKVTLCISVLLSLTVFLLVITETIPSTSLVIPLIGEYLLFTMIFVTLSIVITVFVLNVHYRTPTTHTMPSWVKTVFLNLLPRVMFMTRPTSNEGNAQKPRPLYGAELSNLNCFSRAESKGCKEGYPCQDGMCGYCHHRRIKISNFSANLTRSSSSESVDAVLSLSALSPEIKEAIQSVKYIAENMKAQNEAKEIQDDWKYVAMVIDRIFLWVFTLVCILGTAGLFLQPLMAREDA
# T1 sequence (P30926 22-498): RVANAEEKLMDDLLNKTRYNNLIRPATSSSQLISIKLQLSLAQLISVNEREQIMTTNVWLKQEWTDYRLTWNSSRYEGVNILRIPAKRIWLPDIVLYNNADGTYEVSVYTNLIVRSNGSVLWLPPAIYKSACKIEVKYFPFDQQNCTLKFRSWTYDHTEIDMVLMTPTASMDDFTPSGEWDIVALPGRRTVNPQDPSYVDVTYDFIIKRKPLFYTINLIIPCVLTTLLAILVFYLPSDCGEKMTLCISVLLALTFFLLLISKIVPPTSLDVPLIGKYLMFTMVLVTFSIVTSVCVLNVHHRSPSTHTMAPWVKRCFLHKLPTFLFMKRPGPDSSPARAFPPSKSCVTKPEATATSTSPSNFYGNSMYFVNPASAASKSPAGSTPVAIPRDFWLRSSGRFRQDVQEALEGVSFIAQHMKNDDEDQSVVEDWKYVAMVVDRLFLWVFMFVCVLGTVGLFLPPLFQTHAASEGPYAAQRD
# Protocol: The experiments were carried out in the Eurofins Discovery laboratory, and the methods were referenced from previous studies with modifications ([Michelmore et al., 2002]; [Zaveri et al., 2010]). The competitive binding of the samples and ^125I-epibatidine to the nAchR α3β4 in human recombinant CHO-K1 cells was assessed using a radioligand binding method. The ability of the compound to competitively bind to nAchR α3β4 (Ki) was determined by detecting the signal value of the radioligand bound to the receptor.
# Sigma-1 receptor = target: T2, Sigma-1 receptor (Homo sapiens, UniProt Q99720); test: Sigma 1 receptor radioligand binding (3H-pentazocine, Jurkat cells)
# T2 construct: to the Sigma-1 receptor (Sigma-1R) of human-derived Jurkat cells; host or cells: Jurkat cells
# T2 sequence (Q99720 whole entry): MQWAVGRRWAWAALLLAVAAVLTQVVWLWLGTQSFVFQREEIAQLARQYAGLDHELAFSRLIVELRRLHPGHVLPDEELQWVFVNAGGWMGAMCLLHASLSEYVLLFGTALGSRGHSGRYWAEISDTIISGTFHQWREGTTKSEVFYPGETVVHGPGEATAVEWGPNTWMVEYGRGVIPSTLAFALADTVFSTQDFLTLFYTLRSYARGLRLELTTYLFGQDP
# Protocol: The experiments were carried out in the Eurofins Discovery laboratory, and the methods were referenced from previous studies with modifications ([Prasad et al., 1999]). Competitive binding of the samples and ^3H-pentazocine to the Sigma-1 receptor (Sigma-1R) of human-derived Jurkat cells was assessed using a radioligand binding method. The ability of the compound to bind competitively to the Sigma-1 receptor (Ki) was determined by detecting the signal value of the radioligand bound to the receptor.
# NMDA receptor = settings: for Ki: read-out: Ki, NMDA receptor, 3H-MK801 competition, rat brain membranes, mean, n = 4
# Protocol: Membrane preparation was performed as previously described ([Werling et al., 2007]). Briefly, the brains of male Sprague-Dawley rats were dissected for tissue collection. The tissue was then homogenized in ice-cold extraction solution and centrifuged at 40,000 × g for 10 min (minute). The supernatant was discarded, the precipitate was resuspended in extraction solution, and the above steps were repeated two times. Finally, the precipitate was resuspended in a 10-fold volume of resuspension solution and stored at −80°C. Protein concentration was determined using a PierceTM BCA Protein Assay Kit. The competitive binding of the compound and ^3H-MK801 to the NMDA receptor was evaluated utilizing the filtration binding method. This method involves washing unbound radioligands and subsequently quantifying the signal values of the radioligands bound to the NMDA receptor using a Microbeta instrument (catalog number: 2450, Perkin Elmer, Massachusetts, United States).
# serotonin transporter = target: T3, serotonin transporter (Homo sapiens, UniProt P31645); test: biochemical; format: binding; settings: for Ki: radioligand competition, mean, n = 2
# T3 construct: purchased PerkinElmer, Inc RBHSTM400UA
# T3 sequence (P31645 whole entry): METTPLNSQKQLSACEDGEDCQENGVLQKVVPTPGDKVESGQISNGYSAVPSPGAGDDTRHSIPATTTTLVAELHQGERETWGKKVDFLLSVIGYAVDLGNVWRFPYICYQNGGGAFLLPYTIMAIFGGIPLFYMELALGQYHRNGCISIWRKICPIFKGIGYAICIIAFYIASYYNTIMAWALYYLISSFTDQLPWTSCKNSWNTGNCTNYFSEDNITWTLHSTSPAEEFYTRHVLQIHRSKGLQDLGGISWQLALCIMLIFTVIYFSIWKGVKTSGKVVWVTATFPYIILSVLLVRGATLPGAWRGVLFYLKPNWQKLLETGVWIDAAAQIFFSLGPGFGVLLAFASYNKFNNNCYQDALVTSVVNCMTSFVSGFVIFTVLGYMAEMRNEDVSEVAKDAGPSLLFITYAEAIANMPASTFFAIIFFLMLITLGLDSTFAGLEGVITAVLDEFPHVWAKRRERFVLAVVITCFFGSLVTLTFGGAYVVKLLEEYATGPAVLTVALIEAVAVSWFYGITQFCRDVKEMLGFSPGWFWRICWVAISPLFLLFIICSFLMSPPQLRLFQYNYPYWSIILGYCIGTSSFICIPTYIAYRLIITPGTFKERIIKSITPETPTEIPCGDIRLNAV
# Protocol: (§1) The experiments were carried out in the Pharmaron laboratory, and the methods were referenced from previous studies with modifications ([Yang and Gouaux, 2021]). Competitive binding of the samples and ^3H-hydroxytryptamine creatine sulfate on SERT was assessed using a radioligand binding method. The ability of the compound to competitively bind to SERT (Ki) was determined by detecting the signal value of the radioligand bound to the transporter using a Microbeta instrument (2,450, Perkin Elmer, Massachusetts, United States).
# [3] = target: T4, norepinephrine transporter (Homo sapiens, UniProt P23975); test: Norepinephrine transporter (NET) radioligand binding (3H-Nisoxetine)
# T4 construct: purchased PerkinElmer, Inc RBHNETM400UA
# T4 sequence (P23975 whole entry): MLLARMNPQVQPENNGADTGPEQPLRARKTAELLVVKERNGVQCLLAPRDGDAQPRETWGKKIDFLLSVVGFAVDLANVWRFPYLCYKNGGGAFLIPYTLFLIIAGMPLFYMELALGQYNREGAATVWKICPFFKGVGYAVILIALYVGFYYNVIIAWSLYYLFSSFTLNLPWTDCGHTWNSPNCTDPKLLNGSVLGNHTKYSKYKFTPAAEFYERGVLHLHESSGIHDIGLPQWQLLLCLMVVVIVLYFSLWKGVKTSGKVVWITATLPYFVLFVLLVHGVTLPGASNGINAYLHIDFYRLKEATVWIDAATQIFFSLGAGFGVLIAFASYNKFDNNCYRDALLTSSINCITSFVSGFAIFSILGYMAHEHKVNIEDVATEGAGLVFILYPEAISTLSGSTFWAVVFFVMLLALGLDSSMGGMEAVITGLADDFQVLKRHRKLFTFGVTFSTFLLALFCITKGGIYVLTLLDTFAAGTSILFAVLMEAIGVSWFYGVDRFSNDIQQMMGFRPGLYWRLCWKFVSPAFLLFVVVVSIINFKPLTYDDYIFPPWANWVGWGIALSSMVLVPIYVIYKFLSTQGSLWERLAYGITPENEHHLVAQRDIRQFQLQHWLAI
# Protocol: as §1, with “([Bylund” for “([Yang”, “Toews, 1993]; [Galli et al., 1995]).” for “Gouaux, 2021]).”, “compound” for “samples”, “^3H-Nisoxetine to NETs” for “^3H-hydroxytryptamine creatine sulfate on SERT”, “NET” for “SERT”, “(2450,” for “(2,450,”
# [4] = Pharmacokinetic study in C57BL/6 mice; format: in vivo; settings: male, C57BL/6, mouse, plasma, po, 20 mg/kg
# Description: The assay was built in a way similar to that previously published by [Beconi et al. (2011)] with some modifications. A total of 36 male C57BL/6 mice, weighing between 20 and 22 g, were randomly divided into four groups of nine mice each. […] Mice in each group were numbered 1–9. Following the oral administration of the compounds in each group, blood was collected from the jugular vein at the specified time points, with three mice at each time point and two to three times for each mouse. 1–3 numbered mice had blood collection time points of 0.25, 1.5, and 7 h after the administration of the compounds, 4–6 numbered mice had blood collection time points of 0.5, 2, and 24 h after the administration of the compounds, and 7–9 numbered mice had blood collection time points of 1 and 5 h after the administration of the compounds. All blood samples were collected without anesthesia, and blood was collected in heparinized EP tubes. Plasma was obtained by centrifuging the blood at 10,000 rpm for 2 min at 4°C.
# [5] = Metabolic stability in liver microsomes; format: in vitro ADME, human
# Protocol: All incubations were performed in duplicates. Verapamil was used as the positive control. After pre-warming the mixture for 5 min, reactions were initiated by the addition of NADPH (1 mM). Samples (30 μL) were taken at 0, 20, and 60 min, and the reaction was immediately terminated by adding 150 μL acetonitrile containing an analytical internal standard (IS). Samples were centrifuged at 4,000 rpm for 5 min in a centrifuge (5810R, Eppendorf, Germany), and the supernatant was analyzed by LC-MS/MS (Thermo Scientific TSQ Quantum Ultra, United States).
# The in vivo clearance values (CLint = CLint, in vitro × (mg protein/g liver weight) × (g liver weight/kg body weight)) of humans were predicted by CLint, in vitro values using physiologically-based scaling factors, hepatic microsomal protein concentrations (48.8 mg protein/g liver), and liver weights (25.7 g/kg body weight). The in vivo hepatic clearance (CLH= (Q × CLint)/(Q + CLint)) was then calculated by using CLint and hepatic blood flow, Q (20.7 mL·min^−1·kg^−1 in humans).
# [6] = Pharmacokinetics in male SD rat after oral administration; format: in vivo; settings: male, SD, rat, in vivo, po, 50 mg/kg
# Description: Results expressed as mean, n=3 per group
compound,measurement,setting,value
"CC(NC(C)(C)C)C(=O)c1cccc(Cl)c1 (centres unmarked) [BUP, bupropion]",immobilization time compared to the vehicle group,ICR mice [1],significantly reduced the immobilization time
same,body temperature compared with the model (vehicle) group,Sprague-Dawley rats,significantly increased the body temperature
same,floating time compared to the vehicle group,ICR mice [2],significantly reduced the floating time
same,cough inhibition rate,"C57BL/6J mice; 40 mg/kg, 0.5 h post-administration",19.5%
same,cough inhibition compared with the vehicle group,"C57BL/6J mice; deDM 5 and 10 mg/kg, BUP 40 mg/kg, deDM + BUP 5 + 40 and 10 + 40 mg/kg",neither deDM nor BUP significantly inhibited cough
deuterated dextrorphan [deDX],Ki,"nAchR α3β4; 125I-epibatidine competition, human recombinant CHO-K1 cells, mean, n = 2, read-out: Ki, α3β4 nicotinic acetylcholine receptors",15000 nM
same,Ki,"Sigma-1 receptor; 3H-pentazocine competition, human-derived Jurkat cells, mean, n = 2, read-out: Ki, Sigma-1 receptor",2860 nM
same,Ki,NMDA receptor,420 nM
same,Ki,serotonin transporter,120 nM
same,Ki,"[3]; 3H-Nisoxetine competition, mean, n = 2, read-out: Ki, norepinephrine transporter",7930 nM
"COc1ccc2c(c1)[C@]13CCCC[C@@H]1[C@H](C2)N(C)CC3 [DM, dextromethorphan]",AUC(0-t),[4],184 ± 168 ng·h/mL
same,Cmax,[4]; read-out: Cmax,74.9 ± 49 ng/mL
same,Ki,Sigma-1 receptor,1670 nM
same,half-life at 1 μM,"[5]; 1 μM, 0.5 mg/mL human liver microsomes, NADPH 1 mM, 37°C, mean, n = 2",1.24 h
same,CLint scaled at 1 μM,"[5]; human, liver microsomes, read-out: CLint, in vitro",23.4 mL/min/kg
same,CLH,"[5]; in vivo hepatic clearance predicted from CLint and hepatic blood flow 20.7 mL/min/kg, human",11.0 mL/min/kg
same,Ki,[3],20500 nM
same,AUC(0-t),[6],194 ng·h/mL
same,Cmax,[6]; read-out: Cmax,56 ng/mL
"CN1CC[C@@]23CCCC[C@@H]2[C@@H]1Cc1ccc(O)cc13 [DX, dextrorphan, reference compound]",Ki,nAchR α3β4,9980 nM
same,Ki,Sigma-1 receptor,2850 nM
same,higher affinity for NMDA receptors compared to DM,NMDA receptor; ratio of Ki values,7 fold
same,Ki,NMDA receptor,220 nM
same,Ki,serotonin transporter,140 nM
same,lower affinity for SERT compared to DM,serotonin transporter; ratio of Ki values,17 fold
same,Ki,[3],5670 nM
